Measured values: ChEMBL document CHEMBL1201862, “PubChem BioAssay data set” (2004)
Active and inactive are the calls of the source.

Legend:
[1] = target: T1, Histone-lysine N-methyltransferase NSD2 (Homo sapiens, UniProt O96028); assay type: biochemical
T1 sequence (O96028 whole entry): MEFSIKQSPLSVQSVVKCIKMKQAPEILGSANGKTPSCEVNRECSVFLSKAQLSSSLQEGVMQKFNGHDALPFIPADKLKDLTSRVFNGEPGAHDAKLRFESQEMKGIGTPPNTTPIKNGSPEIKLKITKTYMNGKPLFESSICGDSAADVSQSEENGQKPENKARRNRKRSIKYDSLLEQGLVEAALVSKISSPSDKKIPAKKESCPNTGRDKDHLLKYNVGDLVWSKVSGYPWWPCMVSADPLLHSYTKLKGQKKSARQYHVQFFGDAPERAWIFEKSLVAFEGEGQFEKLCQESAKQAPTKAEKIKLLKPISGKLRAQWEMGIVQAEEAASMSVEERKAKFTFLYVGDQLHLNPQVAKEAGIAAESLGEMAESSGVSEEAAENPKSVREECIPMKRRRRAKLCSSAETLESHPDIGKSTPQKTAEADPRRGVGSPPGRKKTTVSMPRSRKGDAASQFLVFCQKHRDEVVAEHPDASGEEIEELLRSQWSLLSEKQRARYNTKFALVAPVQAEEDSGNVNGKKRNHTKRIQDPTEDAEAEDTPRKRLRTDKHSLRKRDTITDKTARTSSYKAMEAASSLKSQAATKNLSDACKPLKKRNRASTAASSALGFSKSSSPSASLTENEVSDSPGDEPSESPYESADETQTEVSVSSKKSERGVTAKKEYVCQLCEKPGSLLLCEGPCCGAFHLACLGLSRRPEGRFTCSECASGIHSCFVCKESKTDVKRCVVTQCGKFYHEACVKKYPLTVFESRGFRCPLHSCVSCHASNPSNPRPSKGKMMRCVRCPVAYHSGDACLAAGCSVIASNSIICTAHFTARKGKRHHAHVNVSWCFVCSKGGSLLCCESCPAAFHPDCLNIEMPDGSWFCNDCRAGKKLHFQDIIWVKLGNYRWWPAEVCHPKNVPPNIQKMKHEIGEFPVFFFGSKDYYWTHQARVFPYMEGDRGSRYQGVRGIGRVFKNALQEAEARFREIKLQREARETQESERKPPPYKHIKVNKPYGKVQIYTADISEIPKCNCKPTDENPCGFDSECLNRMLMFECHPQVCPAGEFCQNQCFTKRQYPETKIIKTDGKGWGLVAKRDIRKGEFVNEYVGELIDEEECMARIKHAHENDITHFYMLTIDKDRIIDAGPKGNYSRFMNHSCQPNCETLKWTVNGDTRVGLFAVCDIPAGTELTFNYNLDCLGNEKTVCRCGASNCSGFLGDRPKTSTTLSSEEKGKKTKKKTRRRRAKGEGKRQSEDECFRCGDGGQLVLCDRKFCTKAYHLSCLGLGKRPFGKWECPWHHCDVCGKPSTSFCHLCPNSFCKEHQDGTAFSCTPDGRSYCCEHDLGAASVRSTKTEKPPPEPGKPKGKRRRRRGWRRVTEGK

[2] = target: Tyrosine-protein kinase Fer (Homo sapiens, UniProt P16591); assay type: functional;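 note: FER tested as one member of a kinome panel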
Chain of Tyrosine-protein kinase Fer (P16591 whole entry): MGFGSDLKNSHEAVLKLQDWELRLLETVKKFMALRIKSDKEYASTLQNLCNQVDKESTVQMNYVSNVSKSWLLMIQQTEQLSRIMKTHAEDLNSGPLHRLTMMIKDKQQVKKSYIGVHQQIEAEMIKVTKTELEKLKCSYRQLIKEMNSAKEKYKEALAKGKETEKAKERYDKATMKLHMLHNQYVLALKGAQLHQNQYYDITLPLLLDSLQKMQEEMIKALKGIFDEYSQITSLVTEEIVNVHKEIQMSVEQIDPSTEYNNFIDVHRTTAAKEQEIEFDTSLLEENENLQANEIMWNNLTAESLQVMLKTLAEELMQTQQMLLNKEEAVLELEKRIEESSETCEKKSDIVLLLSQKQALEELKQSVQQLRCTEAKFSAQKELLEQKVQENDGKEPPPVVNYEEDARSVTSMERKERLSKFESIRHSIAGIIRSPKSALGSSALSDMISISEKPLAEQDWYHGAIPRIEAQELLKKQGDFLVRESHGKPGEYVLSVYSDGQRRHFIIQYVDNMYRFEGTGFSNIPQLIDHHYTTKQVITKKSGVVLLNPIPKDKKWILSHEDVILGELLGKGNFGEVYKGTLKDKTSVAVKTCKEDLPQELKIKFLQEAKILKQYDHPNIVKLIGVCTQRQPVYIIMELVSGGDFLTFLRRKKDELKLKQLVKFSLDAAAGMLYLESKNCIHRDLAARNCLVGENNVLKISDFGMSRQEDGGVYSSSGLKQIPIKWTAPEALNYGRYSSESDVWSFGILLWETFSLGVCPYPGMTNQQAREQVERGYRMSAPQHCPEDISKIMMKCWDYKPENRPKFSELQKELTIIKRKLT

[3] = target: Receptor tyrosine-protein kinase erbB-2 (Homo sapiens, UniProt P04626); assay: Navigating the Kinome. Panel member name: ERBB2; assay type: functional
Chain of Receptor tyrosine-protein kinase erbB-2 (P04626 whole entry): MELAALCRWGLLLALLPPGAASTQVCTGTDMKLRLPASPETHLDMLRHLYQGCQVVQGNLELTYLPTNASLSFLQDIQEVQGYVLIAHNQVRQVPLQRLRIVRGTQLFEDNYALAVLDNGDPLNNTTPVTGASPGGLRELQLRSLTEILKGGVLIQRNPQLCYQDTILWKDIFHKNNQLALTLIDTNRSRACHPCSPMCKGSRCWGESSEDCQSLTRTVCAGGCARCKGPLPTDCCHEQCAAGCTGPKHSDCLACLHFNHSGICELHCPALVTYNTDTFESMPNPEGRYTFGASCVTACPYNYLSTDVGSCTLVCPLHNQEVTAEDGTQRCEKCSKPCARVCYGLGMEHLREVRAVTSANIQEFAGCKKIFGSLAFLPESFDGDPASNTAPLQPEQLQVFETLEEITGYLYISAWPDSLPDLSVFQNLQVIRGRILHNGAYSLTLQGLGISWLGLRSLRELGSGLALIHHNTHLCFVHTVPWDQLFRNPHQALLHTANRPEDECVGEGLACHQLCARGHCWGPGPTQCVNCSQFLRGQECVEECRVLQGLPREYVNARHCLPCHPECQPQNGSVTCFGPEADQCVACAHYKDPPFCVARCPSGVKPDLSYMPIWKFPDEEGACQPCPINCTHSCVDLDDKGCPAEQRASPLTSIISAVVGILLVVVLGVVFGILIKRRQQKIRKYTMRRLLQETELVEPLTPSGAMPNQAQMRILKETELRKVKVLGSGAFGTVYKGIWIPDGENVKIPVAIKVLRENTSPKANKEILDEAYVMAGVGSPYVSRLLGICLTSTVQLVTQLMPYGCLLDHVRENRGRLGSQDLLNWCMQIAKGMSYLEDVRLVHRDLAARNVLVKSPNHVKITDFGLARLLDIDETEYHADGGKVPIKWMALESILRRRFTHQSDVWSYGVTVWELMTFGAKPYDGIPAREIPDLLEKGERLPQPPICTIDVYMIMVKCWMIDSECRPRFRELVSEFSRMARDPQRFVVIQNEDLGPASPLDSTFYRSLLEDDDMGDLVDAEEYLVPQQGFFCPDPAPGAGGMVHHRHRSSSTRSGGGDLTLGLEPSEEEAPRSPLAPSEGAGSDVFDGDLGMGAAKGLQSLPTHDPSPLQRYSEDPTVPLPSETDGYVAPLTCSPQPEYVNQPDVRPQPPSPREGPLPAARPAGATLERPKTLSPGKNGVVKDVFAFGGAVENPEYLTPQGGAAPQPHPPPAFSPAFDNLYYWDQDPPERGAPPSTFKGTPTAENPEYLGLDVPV

[4] = target: Protein kinase C iota type (Homo sapiens, UniProt P41743); assay type: functional;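 note: measured within a kinome-wide kinase panel, PRKCI as panel member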
[5] = target: SRSF protein kinase 1 (Homo sapiens, UniProt Q96SB4); assay type: functional;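 note: measured as one member of a kinome-wide kinase profiling panel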
[6] = target: Serine/threonine-protein kinase pim-2 (Homo sapiens, UniProt Q9P1W9); assay type: functional;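 note: value comes from a broad kinase panel profiling study in which PIM2 was one of the panel members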
[7] = target: Serine/threonine-protein kinase Nek4 (Homo sapiens, UniProt P51957); assay type: functional
[8] = target: RAC-gamma serine/threonine-protein kinase (Homo sapiens, UniProt Q9Y243); assay type: functional
Chain of RAC-gamma serine/threonine-protein kinase (Q9Y243 whole entry): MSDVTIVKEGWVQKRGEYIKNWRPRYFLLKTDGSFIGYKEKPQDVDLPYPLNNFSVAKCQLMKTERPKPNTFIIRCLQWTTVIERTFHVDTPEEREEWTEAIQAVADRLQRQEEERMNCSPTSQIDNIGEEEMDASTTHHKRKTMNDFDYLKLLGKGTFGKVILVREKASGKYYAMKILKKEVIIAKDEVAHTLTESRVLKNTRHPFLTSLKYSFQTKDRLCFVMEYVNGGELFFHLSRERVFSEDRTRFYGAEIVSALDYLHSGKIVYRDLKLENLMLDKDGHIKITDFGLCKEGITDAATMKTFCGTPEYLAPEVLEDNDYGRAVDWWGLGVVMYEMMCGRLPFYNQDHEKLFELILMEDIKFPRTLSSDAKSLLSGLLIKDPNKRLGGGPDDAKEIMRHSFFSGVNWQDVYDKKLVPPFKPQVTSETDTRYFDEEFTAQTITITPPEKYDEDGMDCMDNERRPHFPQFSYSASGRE

[9] = target: Serine/threonine-protein kinase PLK1 (Homo sapiens, UniProt P53350); assay type: functional;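 note: PLK1 measured as one member of a kinome-wide profiling panel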
[10] = target: Casein kinase I isoform gamma-1 (Homo sapiens, UniProt Q9HCP0); assay type: functional;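 note: measured as the CSNK1G1 member of a kinome profiling panel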
[11] = target: Receptor tyrosine-protein kinase erbB-4 (Homo sapiens, UniProt Q15303); assay type: functional;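 note: ERBB4 member of a kinome-wide kinase profiling panel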
Chain of Receptor tyrosine-protein kinase erbB-4 (Q15303 whole entry): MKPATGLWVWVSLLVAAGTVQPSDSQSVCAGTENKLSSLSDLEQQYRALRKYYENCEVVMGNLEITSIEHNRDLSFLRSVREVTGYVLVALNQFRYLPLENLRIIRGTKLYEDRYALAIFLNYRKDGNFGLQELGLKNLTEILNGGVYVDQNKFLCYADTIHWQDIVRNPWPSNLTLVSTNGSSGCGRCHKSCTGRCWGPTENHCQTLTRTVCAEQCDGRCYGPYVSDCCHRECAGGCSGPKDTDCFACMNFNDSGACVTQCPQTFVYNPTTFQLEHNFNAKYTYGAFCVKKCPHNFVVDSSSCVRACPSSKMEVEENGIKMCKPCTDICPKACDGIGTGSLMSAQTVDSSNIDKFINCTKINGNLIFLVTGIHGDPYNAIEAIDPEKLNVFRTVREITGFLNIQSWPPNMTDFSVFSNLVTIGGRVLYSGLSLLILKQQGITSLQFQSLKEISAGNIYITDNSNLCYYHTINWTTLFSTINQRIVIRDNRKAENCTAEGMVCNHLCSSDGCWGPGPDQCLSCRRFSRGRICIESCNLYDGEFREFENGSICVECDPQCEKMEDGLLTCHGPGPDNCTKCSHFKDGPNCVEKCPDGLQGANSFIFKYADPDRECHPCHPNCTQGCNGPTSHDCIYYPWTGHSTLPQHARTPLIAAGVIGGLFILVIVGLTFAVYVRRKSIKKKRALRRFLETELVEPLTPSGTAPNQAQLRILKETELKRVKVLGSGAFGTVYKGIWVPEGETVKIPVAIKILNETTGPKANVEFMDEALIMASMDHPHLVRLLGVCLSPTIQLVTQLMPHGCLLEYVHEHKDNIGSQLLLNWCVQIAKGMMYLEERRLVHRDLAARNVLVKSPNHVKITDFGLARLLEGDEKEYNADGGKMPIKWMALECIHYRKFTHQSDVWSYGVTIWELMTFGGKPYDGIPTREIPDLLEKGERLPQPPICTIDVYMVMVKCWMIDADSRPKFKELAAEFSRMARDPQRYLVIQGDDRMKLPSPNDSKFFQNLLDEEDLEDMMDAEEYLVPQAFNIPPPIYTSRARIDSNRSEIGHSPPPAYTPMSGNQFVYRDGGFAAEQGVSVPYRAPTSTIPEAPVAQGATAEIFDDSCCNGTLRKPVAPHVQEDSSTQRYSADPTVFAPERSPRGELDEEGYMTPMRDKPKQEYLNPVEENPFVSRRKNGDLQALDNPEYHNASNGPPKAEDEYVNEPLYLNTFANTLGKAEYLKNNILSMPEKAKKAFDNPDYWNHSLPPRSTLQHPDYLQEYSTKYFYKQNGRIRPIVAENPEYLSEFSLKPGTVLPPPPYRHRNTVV

[12] = target: Interleukin-1 receptor-associated kinase 1 (Homo sapiens, UniProt P51617); assay type: functional;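 note: IRAK1 tested as one member of a kinome panel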
[13] = target: Phosphorylase b kinase gamma catalytic chain, liver/testis isoform (Homo sapiens, UniProt P15735); assay type: functional;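 note: PHKG2 measured as one member of a kinome-wide kinase panel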
[14] = target: Protein-tyrosine kinase 6 (Homo sapiens, UniProt Q13882); assay type: functional
[15] = target: MAP kinase-activated protein kinase 3 (Homo sapiens, UniProt Q16644); assay type: functional;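 note: value comes from a kinome-wide profiling panel in which MAPKAPK3 is one of the panel members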
[16] = target: Dual specificity tyrosine-phosphorylation-regulated kinase 4 (Homo sapiens, UniProt Q9NR20); assay type: functional
[17] = target: Mitogen-activated protein kinase 12 (Homo sapiens, UniProt P53778); assay type: functional;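 note: measured as one member of a kinome-wide kinase profiling panel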
Chain of Mitogen-activated protein kinase 12 (P53778 whole entry): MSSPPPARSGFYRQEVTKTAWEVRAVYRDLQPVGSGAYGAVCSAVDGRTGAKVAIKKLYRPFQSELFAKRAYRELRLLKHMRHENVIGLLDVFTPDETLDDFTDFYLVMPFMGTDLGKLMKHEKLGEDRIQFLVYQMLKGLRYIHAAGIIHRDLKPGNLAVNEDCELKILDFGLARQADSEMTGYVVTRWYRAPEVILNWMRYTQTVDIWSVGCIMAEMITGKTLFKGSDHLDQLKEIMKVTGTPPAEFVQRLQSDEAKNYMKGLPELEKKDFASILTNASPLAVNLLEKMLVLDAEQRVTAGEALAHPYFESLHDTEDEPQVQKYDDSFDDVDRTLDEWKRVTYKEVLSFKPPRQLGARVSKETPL

[18] = target: Dual specificity tyrosine-phosphorylation-regulated kinase 3 (Homo sapiens, UniProt O43781); assay type: functional;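 note: measured as one member of a broad kinase panel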
Chain of Dual specificity tyrosine-phosphorylation-regulated kinase 3 (O43781 whole entry): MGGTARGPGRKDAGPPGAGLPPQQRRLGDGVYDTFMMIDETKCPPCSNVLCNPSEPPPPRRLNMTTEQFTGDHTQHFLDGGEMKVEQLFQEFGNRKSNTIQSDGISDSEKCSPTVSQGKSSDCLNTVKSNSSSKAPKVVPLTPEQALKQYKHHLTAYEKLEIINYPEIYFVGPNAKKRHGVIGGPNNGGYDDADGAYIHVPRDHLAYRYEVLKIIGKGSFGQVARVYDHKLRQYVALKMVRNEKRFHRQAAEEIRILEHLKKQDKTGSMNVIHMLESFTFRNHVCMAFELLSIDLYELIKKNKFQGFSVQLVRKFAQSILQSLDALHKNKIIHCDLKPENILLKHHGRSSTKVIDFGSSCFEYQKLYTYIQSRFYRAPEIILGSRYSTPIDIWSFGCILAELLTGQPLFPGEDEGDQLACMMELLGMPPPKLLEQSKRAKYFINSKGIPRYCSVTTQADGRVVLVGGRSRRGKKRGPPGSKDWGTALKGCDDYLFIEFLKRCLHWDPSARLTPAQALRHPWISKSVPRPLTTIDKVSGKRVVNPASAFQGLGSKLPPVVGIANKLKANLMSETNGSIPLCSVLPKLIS

[19] = target: G protein-coupled receptor kinase 5 (Homo sapiens, UniProt P34947); assay: Navigating the Kinome. Panel member name: GPRK5; assay type: functional
[20] = target: Mitogen-activated protein kinase 1 (Homo sapiens, UniProt P28482); assay type: functional
[21] = target: Calcium/calmodulin-dependent protein kinase type II subunit gamma (Homo sapiens, UniProt Q13555); assay type: functional
[22] = system: Streptococcus sp. 'group A'; assay: growth inhibition of control SK(-) GAS strain, dose response, counter-screen for streptokinase expression inhibitor project, luminescence, kanamycin, BacTiterGlo, confirmation (AID 1900); assay type: functional, organism-based
[23] = cells; assay type: functional, cell-based
[24] = system: Streptococcus; assay: Group A Streptococcus viability loss, dose response, counter-screen for streptokinase expression inhibitor project, luminescence, BacTiterGlo (AID 1915); assay type: functional, organism-based;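 note: potency for reduction of bacterial viability or growth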
[25] = target: Heat shock protein HSP 90-alpha (Homo sapiens, UniProt P07900); assay type: functional, organism-based
[26] = target: ATP-dependent molecular chaperone HSP82 (Candida albicans (strain WO-1) (Yeast), UniProt C4YTQ8); assay: loss of DOC-induced GRE-beta-galactosidase reporter signal, dose response, Hsp90 inhibitor project, S. cerevisiae, luminescence (AID 2400); assay type: functional, cell-based;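 note: beta-galactosidase luminescence from glucocorticoid response element reporter as proxy for Hsp90 function; inhibitor potency where signal loss means Hsp90 inhibition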

## OCC[n+]1c2ccccc2nc2ccc(N3CCOCC3)cc21
[1]
  AC50: 6780 nM (active)

## CS(=O)(=O)N(Cc1ccc2[nH]c(=O)c3cccn3c2c1)C1CC1
[2]
  Ki: > 1580 nM (inactive)
[3]
  Ki: 31.6 nM (active)
[4]
  Ki: > 5010 nM (inactive)
[5]
  Ki: 200 nM (active)
[6]
  Ki: > 1580 nM (inactive)
[7]
  Ki: 251 nM (active)
[8]
  Ki: 79.4 nM (active)
[9]
  Ki: 10 nM (active)
[10]
  Ki: 631 nM (active)
[11]
  Ki: > 3980 nM (inactive)
[12]
  Ki: 158 nM (active)
[13]
  Ki: 2000 nM (active)
[14]
  Ki: 2000 nM (active)
[15]
  Ki: 50.1 nM (active)
[16]
  Ki: 39.8 nM (active)
[17]
  Ki: 316 nM (active)
[18]
  Ki: 158 nM (active)
[19]
  Ki: > 3980 nM (inactive)
[20]
  Ki: > 7940 nM (inactive)
[21]
  Ki: 251 nM (active)

## Cc1cc(NC(c2ccc(Cl)cc2)c2ccc3cccnc3c2O)no1 (stereo unspecified)
[22]
  EC50: 416 nM (active)
[23]
  EC50: > 350000 nM (not active)
[24]
  EC50: 15000 nM (active)
[25]
  AC50: 3870 nM (active)
[26]
  EC50: 20700 nM (active)
